According to US11679110B2, “Methods of treating disorders using CSF1R inhibitors” (Deciphera Pharmaceuticals, LLC, priority 2018, dated 2023):
Read-outs that look alike come from different tables or passages of the source. Marks after values point to notes of the source that are not given here.

Assay: Plasma pharmacokinetics of Compound 1 in patients with advanced solid tumor malignancies and TGCT
Type: in vivo, human
Details: for Cmax / AUC(0-t) / Tmax: human, plasma, oral; for Tmax: Median (Min, Max)
Method: PK analysis was conducted on all 38 patients. Serial blood samples were collected for PK and took place on either Day −7, Cycle 1, Day 1 (C1D1) and C2D1 at pre-dose, 0.5, 1, 2, 4, 6, 8, 10-12, and 24 hr time points or Day −7, C1D1, C1D8, and C2D1 at pre-dose, 1, 2, 4, 6, and 8 hr time points, or C1D1, C1D8, and C2D1 at pre-dose, 1, 2, 4, 6, and 8 hr time points. High fat meal was given prior to dosing of Compound 1 on Day −7. PD effects were measured by two methodologies: 1) depletion of CSF1R-expressing monocytes in peripheral blood (Cohorts 1-7) from C1D1, C1D15 and C2D1; and 2) increase of plasma levels of CSF1 and IL-34, the ligands for CSF1R (Cohorts 1-7) on C1D1, C1D15, and C2D1. For the CD16^+ monocyte assay, whole blood collected in an EDTA vacutainer was aliquoted into tubes and incubated with fluorescently-labeled antibodies (CD14-Alexa488 (BD Pharmingen); CD16-PE-Cy7 (BD Pharmingen); and TIE2-APC (R&D Systems). After incubation, red blood cells were lysed, and the remaining cells were washed several times before being analyzed on a flow cytometer. For the plasma CSF1 assay or IL-34, whole blood collected in an EDTA vacutainer was centrifuged, and the plasma was collected and frozen. Plasma levels of CSF1 or IL-34 were measured using a commercial ELISA kit (R&D Systems).
Cohort 1 had daily dosing.

Cc1nc(-c2cnc(NC(C)C)n(C)c2=O)ccc1Oc1ccnc(-c2cnn(C)c2)c1 [Compound 1, 2-(isopropylamino)-3-methyl-5-(6-methyl-5-((2-(1-methyl-1H-pyrazol-4-yl)pyridin-4-yl)oxy)pyridin-2-yl)pyrimidin-4(3H)-one]
Ctrough (Cohort 1 10 mg QD, C1D8, Geo Mean): 331 ng/mL | Ctrough (Cohort 1 10 mg QD, C2D1, Geo Mean): 447^c ng/mL | Ctrough (Cohort 2 10 mg QD x 5 d, BIW maintenance dose, C1D8, Geo Mean): 184 ng/mL | Ctrough (Cohort 2 10 mg QD x 5 d, BIW maintenance dose, C2D1, Geo Mean): 122 ng/mL | AUC0-8 (Cohort 2 10 mg Twice Weekly after 5-day QD loading dose, C2D1, GM (CV %)): 1030 (63) hr*ng/mL | Ctrough (Cohort 3 20 mg QD x 5 d, QW maintenance dose, C1D8, Geo Mean): 850 ng/mL | Ctrough (Cohort 3 20 mg QD x 5 d, QW maintenance dose, C2D1, Geo Mean): 205 ng/mL | AUC0-8 (Cohort 3 20 mg Weekly after 5-day QD loading dose, C2D1, GM (CV %)): 3380 ng·h/mL | Ctrough (Cohort 4 20 mg QD x 5 d, BIW maintenance dose, C1D8, Geo Mean): 483 ng/mL | Ctrough (Cohort 4 20 mg QD x 5 d, BIW maintenance dose, C2D1, Geo Mean): 441 ng/mL | AUC0-8 (Cohort 4 20 mg Twice Weekly after 5-day QD loading dose, C2D1, GM (CV %)): 4300 (2.82) hr*ng/mL | Ctrough (Cohort 5 30 mg QD x 5 d, BIW maintenance dose, C1D8, Geo Mean): 1020 ng/mL | Ctrough (Cohort 5 30 mg QD x 5 d, BIW maintenance dose, C2D1, Geo Mean): 574 ng/mL | AUC0-8 (Cohort 5 30 mg Twice Weekly after 5-day QD loading dose, C2D1, GM (CV %)): 4750 (53.2) hr*ng/mL | Ctrough (Cohort 6 30 mg QD x 5 d, BIW maintenance dose (so in the source), C2D1, Geo Mean): 570 ng/mL | AUC0-8 (Cohort 6 40 mg Twice Weekly after 5-day QD loading dose, C2D1, GM (CV %)): 7290 (28.1) hr*ng/mL | AUC0-8 (Cohort 7 20 mg QD after 3-day 50 mg QD loading dose, C2D1, GM (CV %)): 5580 (86.8) hr*ng/mL | Ctrough (Cohort 7 50 mg QD x 3 d, QD maintenance dose, C2D1, Geo Mean): 1040 ng/mL | Cmax (10 mg, Cohort 1 10 mg QD, C1D1, GM (CV %)): 155 ng/mL | AUC(0-t) (10 mg, Cohort 1 10 mg QD, C1D1, GM (CV %), read-out: AUC0-8): 770 ng·h/mL | Cmax (10 mg, Cohort 1 10 mg QD, C1D1, Geo Mean): 155 ng/mL | AUC(0-t) (10 mg, Cohort 1 10 mg QD, C1D1, Geo Mean, read-out: AUC0-8 h): 770 ng·h/mL | Tmax (10 mg, Cohort 1 10 mg QD, C1D1): 1 h | Cmax (10 mg, Cohort 1 10 mg QD, C2D1, GM (CV %)): 767 ng/mL | AUC(0-t) (10 mg, Cohort 1 10 mg QD, C2D1, GM (CV %), read-out: AUC0-8): 4510 ng·h/mL | Cmax (10 mg, Cohort 1 10 mg QD, C2D1, Geo Mean): 767 ng/mL | AUC(0-t) (10 mg, Cohort 1 10 mg QD, C2D1, Geo Mean, read-out: AUC0-8 h): 4470 ng·h/mL | Tmax (10 mg, Cohort 1 10 mg QD, C2D1): 0.5 h | Cmax (10 mg, Cohort 1 10 mg QD, Day -7, Geo Mean): 75.9 ng/mL | AUC(0-t) (10 mg, Cohort 1 10 mg QD, Day -7, Geo Mean, read-out: AUC0-8 h): 429 ng·h/mL | Cmax (10 mg, Cohort 1 10 mg QD, Day-7, GM (CV %)): 75.9 ng/mL | AUC(0-t) (10 mg, Cohort 1 10 mg QD, Day-7, GM (CV %), read-out: AUC0-8): 425 ng·h/mL | Cmax (10 mg, Cohort 2 10 mg QD x 5 d, BIW maintenance dose, C1D1, Geo Mean): 168 ng/mL | AUC(0-t) (10 mg, Cohort 2 10 mg QD x 5 d, BIW maintenance dose, C1D1, Geo Mean, read-out: AUC0-8 h): 1080 ng·h/mL | Cmax (10 mg, Cohort 2 10 mg QD x 5 d, BIW maintenance dose, C1D8, Geo Mean): 248 ng/mL | AUC(0-t) (10 mg, Cohort 2 10 mg QD x 5 d, BIW maintenance dose, C1D8, Geo Mean, read-out: AUC0-8 h): 1730 ng·h/mL | Cmax (10 mg, Cohort 2 10 mg QD x 5 d, BIW maintenance dose, C2D1, Geo Mean): 149 ng/mL | AUC(0-t) (10 mg, Cohort 2 10 mg QD x 5 d, BIW maintenance dose, C2D1, Geo Mean, read-out: AUC0-8 h): 1030 ng·h/mL | Cmax (10 mg, Cohort 2 10 mg QD x 5 d, BIW maintenance dose, Day -7, Geo Mean): 119 ng/mL | AUC(0-t) (10 mg, Cohort 2 10 mg QD x 5 d, BIW maintenance dose, Day -7, Geo Mean, read-out: AUC0-8 h): 781 ng·h/mL | Cmax (10 mg, Cohort 2 10 mg Twice Weekly after 5-day QD loading dose, C1D1, GM (CV %)): 94 ng/mL | AUC(0-t) (10 mg, Cohort 2 10 mg Twice Weekly after 5-day QD loading dose, C1D1, GM (CV %), read-out: AUC0-8): 467 ng·h/mL | Cmax (10 mg, Cohort 2 10 mg Twice Weekly after 5-day QD loading dose, C1D8, GM (CV %)): 248 ng/mL | AUC(0-t) (10 mg, Cohort 2 10 mg Twice Weekly after 5-day QD loading dose, C1D8, GM (CV %), read-out: AUC0-8): 1730 ng·h/mL | Tmax (10 mg, Cohort 2 10 mg Twice Weekly after 5-day QD loading dose, C1D8): 1 h | Cmax (10 mg, Cohort 2 10 mg Twice Weekly after 5-day QD loading dose, C2D1, GM (CV %)): 149 ng/mL | AUC(0-t) (10 mg, Cohort 2 10 mg Twice Weekly after 5-day QD loading dose, C2D1, GM (CV %), read-out: AUC0-8): 1030 ng·h/mL | Tmax (10 mg, Cohort 2 10 mg Twice Weekly after 5-day QD loading dose, C2D1): 1 h | Cmax (10 mg, Cohort 2 10 mg Twice Weekly after 5-day QD loading dose, Day-7, GM (CV %)): 80.2 ng/mL | AUC(0-t) (10 mg, Cohort 2 10 mg Twice Weekly after 5-day QD loading dose, Day-7, GM (CV %), read-out: AUC0-8): 353 ng·h/mL | Cmax (20 mg, Cohort 3 20 mg QD x 5 d, QW maintenance dose, C1D1, Geo Mean): 466 ng/mL | AUC(0-t) (20 mg, Cohort 3 20 mg QD x 5 d, QW maintenance dose, C1D1, Geo Mean, read-out: AUC0-8 h): 2510 ng·h/mL | Cmax (20 mg, Cohort 3 20 mg QD x 5 d, QW maintenance dose, C1D8, Geo Mean): 1160 ng/mL | AUC(0-t) (20 mg, Cohort 3 20 mg QD x 5 d, QW maintenance dose, C1D8, Geo Mean, read-out: AUC0-8 h): 7410 ng·h/mL | Cmax (20 mg, Cohort 3 20 mg QD x 5 d, QW maintenance dose, C2D1, Geo Mean): 530 ng/mL | AUC(0-t) (20 mg, Cohort 3 20 mg QD x 5 d, QW maintenance dose, C2D1, Geo Mean, read-out: AUC0-8 h): 3380 ng·h/mL | Cmax (20 mg, Cohort 3 20 mg QD x 5 d, QW maintenance dose, Day -7, Geo Mean): 242 ng/mL | AUC(0-t) (20 mg, Cohort 3 20 mg QD x 5 d, QW maintenance dose, Day -7, Geo Mean, read-out: AUC0-8 h): 1320 ng·h/mL | Cmax (20 mg, Cohort 3 20 mg Weekly after 5-day QD loading dose, C1D1, GM (CV %)): 466 ng/mL | AUC(0-t) (20 mg, Cohort 3 20 mg Weekly after 5-day QD loading dose, C1D1, GM (CV %), read-out: AUC0-8): 2510 ng·h/mL | Tmax (20 mg, Cohort 3 20 mg Weekly after 5-day QD loading dose, C1D1): 1 h | Cmax (20 mg, Cohort 3 20 mg Weekly after 5-day QD loading dose, C1D8, GM (CV %)): 1160 ng/mL | AUC(0-t) (20 mg, Cohort 3 20 mg Weekly after 5-day QD loading dose, C1D8, GM (CV %), read-out: AUC0-8): 7290 ng·h/mL | Tmax (20 mg, Cohort 3 20 mg Weekly after 5-day QD loading dose, C1D8): 1 h | Cmax (20 mg, Cohort 3 20 mg Weekly after 5-day QD loading dose, C2D1, GM (CV %)): 530 ng/mL | AUC(0-t) (20 mg, Cohort 3 20 mg Weekly after 5-day QD loading dose, C2D1, GM (CV %), read-out: AUC0-8): 3380 ng·h/mL | Tmax (20 mg, Cohort 3 20 mg Weekly after 5-day QD loading dose, C2D1): 1 h
